Data taken from US20200085839A1, “COMBINATION OF IMMUNOTHERAPEUTICS AND BISFLUOROALKYL-1,4-BENZODIAZEPINONE COMPOUNDS FOR TREATING LYMPHOMAS” (Ayala Pharmaceuticals Inc., priority 2018, published 2020).
Where two headings read alike, the source gives them in different places.

How the values were obtained:
Assay in all cases: Cell surface BCMA by FACS
Type in all cases: cell-based, human
Settings in all cases: for EC50: Homo sapiens
[1] = test system: BC-1 cells (B-cell Lymphoma)
Method: (§1) […] cell lines, comprising 9 subtypes of lymphomas (see Table 1), were seeded at 1×10^5 cells/well in a total volume of 250 μl into a 96-well plate. The cells were cultured in RPMI medium supplemented with 10% FCS. Compound (22) was added to the cell cultures at a concentration of 10 μM, 1 μM, 100 nM, 10 nM, 1 nM, 100 pM, 10 pM, 1 pM, and 100 fM, and cell lines (8 from Hadassah Medical Center, 31 from Eurofins) were incubated at 37° C. for 24 hours with Compound (22). Following incubation, the cells were collected and BCMA levels were evaluated on the cell surface for cell-bound BCMA. Cells were stained with an anti-BCMA antibody (PE anti-human 19F2 BCMA, Biolegend), and cell surface BCMA levels were determined by FACS analysis (Mean Fluorescence Intensity. Soluble BCMA levels were analyzed by ELISA (Human BCMA/TNFRSF17 DuoSet kit: R&D Systems).

[2] = test system: EB-3 cells (Burkitt's Lymphoma)
Method: as §1

[3] = test system: H9 cells (Cutaneous T-cell Lymphoma)
Method: as §1

[4] = test system: EB-2 cells (Burkitt's Lymphoma)
Method: as §1

SUDHL-8 cells (DLBCL) = test system: SUDHL-8 cells (DLBCL)
Method: as §1

ST486 cells (DLBCL) = test system: ST486 cells (DLBCL)
Method: as §1

[5] = test system: NU-DUL-1 cells (B-cell Lymphoma)
Method: as §1

[6] = test system: L-248 cells (Hodgkin's Lymphoma)
Method: as §1

[7] = test system: Namalwa cells (Burkitt's Lymphoma)
Method: as §1

[8] = test system: MC-116 cells (B-cell Lymphoma)
Method: as §1

[9] = test system: RPMI-6666 cells (Hodgkin's Lymphoma)
Method: as §1

[10] = test system: CA46 cells (Burkitt's Lymphoma)
Method: as §1

[11] = test system: JVM-2 cells (Mantle Cell Lymphoma)
Method: as §1

HT cells (DLBCL) = test system: HT cells (DLBCL)
Method: as §1

[12] = test system: REC-1 cells (Mantle Cell Lymphoma)
Method: as §1

[13] = test system: BCP-1 cells (B-cell Lymphoma)
Method: as §1

[14] = test system: Jeko-1 cells (Mantle Cell Lymphoma)
Method: as §1

[15] = test system: U937 cells (Histiocytic Lymphoma)
Method: as §1

[16] = test system: SR cells (Anaplastic Large Cell Lymphoma)
Method: as §1

[17] = 24 h, read-out: BCMA (Mean Fluorescence Intensity) EC50

SMILES: Cc1cccc2c1NC(=O)[C@@H](NC(=O)[C@H](CCC(F)(F)F)[C@H](CCC(F)(F)F)C(N)=O)N=C2c1cccc(F)c1 [Compound (22), (2R,3S)—N-((3S)-5-(3-fluorophenyl)-9-methyl-2-oxo-2,3-dihydro-1H-1,4-benzodiazepin-3-yl)-2,3-bis(3,3,3-trifluoropropyl)succinamide]
- mBCMA (MFI) Fold Increase [1]: 5.9 fold
- BCMA (Mean Fluorescence Intensity) 1 nM Compound (22) ([1]; 1 nM, 24 h): 676
- BCMA (Mean Fluorescence Intensity) 100 nM Compound (22) ([1]; 100 nM, 24 h): 3694
- EC50 ([1]; BC1, 24 h, read-out: BCMA (Mean Fluorescence Intensity) EC50): 30.6 nM
- EC50 ([1]; BC1, read-out: mBCMA (MFI) EC50): 30.6 nM
- mBCMA (MFI) Fold Increase [2]: 0.5 fold
- BCMA (Mean Fluorescence Intensity) 1 nM Compound (22) ([2]; 1 nM, 24 h): 549
- BCMA (Mean Fluorescence Intensity) 100 nM Compound (22) ([2]; 100 nM, 24 h): 449
- EC50 [2, 17]: > 10000 nM
- EC50 ([2]; read-out: mBCMA (MFI) EC50): > 10000 nM
- mBCMA (MFI) Fold Increase [3]: 1.1 fold
- BCMA (Mean Fluorescence Intensity) 1 nM Compound (22) ([3]; 1 nM, 24 h): 811
- BCMA (Mean Fluorescence Intensity) 100 nM Compound (22) ([3]; 100 nM, 24 h): 900
- EC50 [3, 17]: > 10000 nM
- EC50 ([3]; read-out: mBCMA (MFI) EC50): > 10000 nM
- mBCMA (MFI) Fold Increase [4]: 5.4 fold
- BCMA (Mean Fluorescence Intensity) 1 nM Compound (22) ([4]; 1 nM, 24 h): 18536
- BCMA (Mean Fluorescence Intensity) 100 nM Compound (22) ([4]; 100 nM, 24 h): 28188
- EC50 ([4]; EB2, 24 h, read-out: BCMA (Mean Fluorescence Intensity) EC50): 0.98 nM
- EC50 ([4]; EB2, read-out: mBCMA (MFI) EC50): 0.98 nM
- mBCMA (MFI) Fold Increase (SUDHL-8 cells (DLBCL)): 1.7 fold
- BCMA (Mean Fluorescence Intensity) 1 nM Compound (22) (SUDHL-8 cells (DLBCL); 1 nM, 24 h): 350
- BCMA (Mean Fluorescence Intensity) 100 nM Compound (22) (SUDHL-8 cells (DLBCL); 100 nM, 24 h): 414
- EC50 (SUDHL-8 cells (DLBCL); SU-DHL-8, 24 h, read-out: BCMA (Mean Fluorescence Intensity) EC50): > 10000 nM
- EC50 (SUDHL-8 cells (DLBCL); SU-DHL-8, read-out: mBCMA (MFI) EC50): > 10000 nM
- mBCMA (MFI) Fold Increase (ST486 cells (DLBCL)): 4.5 fold
- BCMA (Mean Fluorescence Intensity) 1 nM Compound (22) (ST486 cells (DLBCL); 1 nM, 24 h): 10564
- BCMA (Mean Fluorescence Intensity) 100 nM Compound (22) (ST486 cells (DLBCL); 100 nM, 24 h): 13410
- EC50 (ST486 cells (DLBCL); [17]): 0.58 nM
- EC50 (ST486 cells (DLBCL); read-out: mBCMA (MFI) EC50): 0.58 nM
- mBCMA (MFI) Fold Increase [5]: 7.0 fold
- BCMA (Mean Fluorescence Intensity) 1 nM Compound (22) ([5]; 1 nM, 24 h): 3892
- BCMA (Mean Fluorescence Intensity) 100 nM Compound (22) ([5]; 100 nM, 24 h): 4665
- EC50 [5, 17]: 0.61 nM
- EC50 ([5]; read-out: mBCMA (MFI) EC50): 0.61 nM
- mBCMA (MFI) Fold Increase [6]: 1.0 fold
- BCMA (Mean Fluorescence Intensity) 1 nM Compound (22) ([6]; 1 nM, 24 h): 440
- BCMA (Mean Fluorescence Intensity) 100 nM Compound (22) ([6]; 100 nM, 24 h): 445
- EC50 [6, 17]: > 10000 nM
- EC50 ([6]; read-out: mBCMA (MFI) EC50): > 10000 nM
- mBCMA (MFI) Fold Increase [7]: 2.0 fold
- BCMA (Mean Fluorescence Intensity) 1 nM Compound (22) ([7]; 1 nM, 24 h): 1395
- BCMA (Mean Fluorescence Intensity) 100 nM Compound (22) ([7]; 100 nM, 24 h): 1690
- EC50 [7, 17]: 10.7 nM
- EC50 ([7]; read-out: mBCMA (MFI) EC50): 10.7 nM
- mBCMA (MFI) Fold Increase [8]: 4.2 fold
- BCMA (Mean Fluorescence Intensity) 1 nM Compound (22) ([8]; 1 nM, 24 h): 915
- BCMA (Mean Fluorescence Intensity) 100 nM Compound (22) ([8]; 100 nM, 24 h): 1850
- EC50 ([8]; MC116, 24 h, read-out: BCMA (Mean Fluorescence Intensity) EC50): 1.9 nM
- EC50 ([8]; MC116, read-out: mBCMA (MFI) EC50): 1.9 nM
- mBCMA (MFI) Fold Increase [9]: 6.6 fold
- BCMA (Mean Fluorescence Intensity) 1 nM Compound (22) ([9]; 1 nM, 24 h): 971.5
- BCMA (Mean Fluorescence Intensity) 100 nM Compound (22) ([9]; 100 nM, 24 h): 3287.5
- EC50 [9, 17]: 7 nM
- EC50 ([9]; read-out: mBCMA (MFI) EC50): 7 nM
- mBCMA (MFI) Fold Increase [10]: 5.5 fold
- BCMA (Mean Fluorescence Intensity) 1 nM Compound (22) ([10]; 1 nM, 24 h): 6424
- BCMA (Mean Fluorescence Intensity) 100 nM Compound (22) ([10]; 100 nM, 24 h): 13506
- EC50 [10, 17]: 2.3 nM
- EC50 ([10]; read-out: mBCMA (MFI) EC50): 2.3 nM
- mBCMA (MFI) Fold Increase [11]: 7.0 fold
- BCMA (Mean Fluorescence Intensity) 1 nM Compound (22) ([11]; 1 nM, 24 h): 4437
- BCMA (Mean Fluorescence Intensity) 100 nM Compound (22) ([11]; 100 nM, 24 h): 21757
- EC50 [11, 17]: 3.1 nM
- EC50 ([11]; read-out: mBCMA (MFI) EC50): 3.1 nM
- mBCMA (MFI) Fold Increase (HT cells (DLBCL)): 3.2 fold
- BCMA (Mean Fluorescence Intensity) 1 nM Compound (22) (HT cells (DLBCL); 1 nM, 24 h): 488
- BCMA (Mean Fluorescence Intensity) 100 nM Compound (22) (HT cells (DLBCL); 100 nM, 24 h): 895
- EC50 (HT cells (DLBCL); [17]): 2.3 nM
- EC50 (HT cells (DLBCL); read-out: mBCMA (MFI) EC50): 2.3 nM
- mBCMA (MFI) Fold Increase [12]: 1.0 fold
- BCMA (Mean Fluorescence Intensity) 1 nM Compound (22) ([12]; 1 nM, 24 h): 217
- BCMA (Mean Fluorescence Intensity) 100 nM Compound (22) ([12]; 100 nM, 24 h): 243
- EC50 ([12]; Rec1, 24 h, read-out: BCMA (Mean Fluorescence Intensity) EC50): > 10000 nM
- EC50 ([12]; Rec1, read-out: mBCMA (MFI) EC50): > 10000 nM
- mBCMA (MFI) Fold Increase [13]: 2.9 fold
- BCMA (Mean Fluorescence Intensity) 1 nM Compound (22) ([13]; 1 nM, 24 h): 398
- BCMA (Mean Fluorescence Intensity) 100 nM Compound (22) ([13]; 100 nM, 24 h): 1159
- cell-bound BCMA ([13]; FIG. 6A): increased cell-bound BCMA
- EC50 [13, 17]: 45.6 nM
- EC50 ([13]; read-out: mBCMA (MFI) EC50): 45.6 nM
- EC50 ([14]; JeKo-1, read-out: mBCMA (MFI) EC50): 1.2 nM
- EC50 ([14]; Jeko-1, 24 h, read-out: BCMA (Mean Fluorescence Intensity) EC50): 1.2 nM
- mBCMA (MFI) Fold Increase ([14]; Jeko-1): 7.4 fold
- BCMA (Mean Fluorescence Intensity) 1 nM Compound (22) ([14]; Jeko-1, 1 nM, 24 h): 1654
- BCMA (Mean Fluorescence Intensity) 100 nM Compound (22) ([14]; Jeko-1, 100 nM, 24 h): 2885
- mBCMA (MFI) Fold Increase [15]: 1.0 fold
- BCMA (Mean Fluorescence Intensity) 1 nM Compound (22) ([15]; 1 nM, 24 h): 327
- BCMA (Mean Fluorescence Intensity) 100 nM Compound (22) ([15]; 100 nM, 24 h): 328
- EC50 ([15]; U-937, 24 h, read-out: BCMA (Mean Fluorescence Intensity) EC50): > 10000 nM
- EC50 ([15]; U-937, read-out: mBCMA (MFI) EC50): > 10000 nM
- mBCMA (MFI) Fold Increase [16]: 1.0 fold
- BCMA (Mean Fluorescence Intensity) 1 nM Compound (22) ([16]; 1 nM, 24 h): 289
- BCMA (Mean Fluorescence Intensity) 100 nM Compound (22) ([16]; 100 nM, 24 h): 293
- EC50 [16, 17]: > 10000 nM
- EC50 ([16]; read-out: mBCMA (MFI) EC50): > 10000 nM
